≈ marks a conversion by molar mass, not a printed value.
How the values were obtained:
[1] = tested on: Cyclin D1, phospho-RB in HCC827 cells; assay: immunoblot of signalling proteins in HCC827 cells; type: cell-based; settings: HCC827, 48 hours treatment, TNO155 together with ribociclib (FIG. 2)
Experimental: HCC827 cells were plated in 6-well plates at a density of 2×10^5 cells/well in 2 ml of complete culture medium. […] 48 hours after the treatment, cells were harvested in freshly prepared RIPA cell lysis buffer supplemented with Protease and Phosphatase Inhibitor Cocktail. Proteins extracted from cell lysates were separated by electrophoresis using a NuPAGE 4-12% Bis-Tis gel and were transferred to nitrocellulose membranes, followed by standard immunobloting procedures. The primary antibodies used were all from Cell Signaling Technology with the following catalog numbers: phospho-RB (S807/811, #8516), Cyclin D1 (#2978), cleaved PARP (#9546), phospho-ERK (T202/Y204, #4370), phospho-RSK3 (T356/S360, #9348), phospho-AKT (S473, #4060) and Tubulin (#3873). The signals were visualized by simantanous incubation with goat anti-rabbit secondary antibodies conjugated with Alexa Fluor® 700 and the goat anti-mouse secondary antibody conjugated with IRDye 800 CW for Tubulin (protein loading control) and scanning with an Odyssey Infrared Imager System.

[2] = tested on: DETROIT-562 (pharyngeal squamous cell carcinoma); assay: antiproliferation in DETROIT-562 cells; type: cell-based; settings: Homo sapiens
[3] = tested on: KYSE-520 (esophageal squamous cell carcinoma); assay: antiproliferation in KYSE-520 cells; type: cell-based; settings: Homo sapiens
[4] = tested on: tumor DUSP6 biomarker; assay: dose fractionation studies with tumor DUSP6 biomarker; type: in vivo; settings: attained for at least 80% of the dosing interval
Text: (§1) SHP2 inhibition can be measured by assessing biomarkers within the MAPK signaling pathway, such as decreased levels of phosphorylated ERK1/2 (pERK) and downregulation of dual specificity phosphatase 6 (DUSP6) mRNA transcript.

[5] = tested on: phosphorylated ERK1/2 (pERK); assay: in vitro pERK inhibition in DETROIT-562 cells; type: cell-based; settings: Homo sapiens
Text: as §1

[6] = tolerability in rats; type: in vivo
[7] = tested on: lineage-matched pRb-negative cell lines; assay: cell cycle progression in pRb-negative cell lines; type: cell-based
[8] = tested on: pRb-positive cell lines derived from diverse cancer types; assay: pRb phosphorylation and cell cycle in pRb-positive cell lines; type: cell-based; settings: more than 40 pRb-positive cell lines
[9] = tolerability in mice; type: in vivo
[10] = tested on: tumor xenograft models; assay: in vivo anti-tumor activity in tumor xenograft models; settings: subsets of xenograft models incl. breast, melanoma, neuroblastoma, malignant rhabdoid, lung, pancreas, hematological malignancies
[11] = up to 28 days, up to 150 mg/kg once daily orally
[12] = up to 28 days, up to 250 mg/kg once daily orally

IC50 [2] [µg/mL] | IC50 [3] [µg/mL] | IC50 [5] [µg/mL] | SMILES | ribociclib-induced cyclin D1 accumulation [1] | PD inhibition at which maximal efficacy is achieved [4] [%] | myelosuppression ([6]; correlated with pRb inhibition) | body weight loss [6, 11] [%] | tolerability [6, 11] | effect on cell cycle progression [7] | G1 to S phase cell cycle progression [8] | Retinoblastoma protein (pRb) phosphorylation [8] | myelosuppression ([9]; correlated with pRb inhibition) | body weight loss [9, 12] [%] | tolerability [9, 12] | in vivo anti-tumor activity [10]
0.198 (≈ 0.47 µM) | 0.0422 (≈ 0.1 µM) | 0.0148 (≈ 0.0351 µM) | C[C@@H]1OCC2(CCN(c3cnc(Sc4ccnc(N)c4Cl)c(N)n3)CC2)[C@@H]1N [TNO155, (3S,4S)-8-(6-amino-5-((2-amino-3-chloropyridin-4-yl)thio)pyrazin-2-yl)-3-methyl-2-oxa-8-azaspiro[4.5]decan-4-amine] | prevention of ribociclib-induced cyclin D1 accumulation | 50 | – | – | – | – | – | – | – | – | – | –
– | – | – | CN(C)C(=O)c1cc2cnc(Nc3ccc(N4CCNCC4)cn3)nc2n1C1CCCC1 [ribociclib, 7-cyclopentyl-N,N-dimethyl-2-((5-(piperazin-1-yl)pyridin-2-yl)amino)-7H-pyrrolo[2,3-d]pyrimidine-6-carboxamide] | – | – | myelosuppression was observed | ≤ 12.5 | well-tolerated | no effect | interfered | inhibited | myelosuppression was observed | ≤ 12.5 | well-tolerated | demonstrated in vivo anti-tumor activity

Source: patent US12343344B2 (NOVARTIS AG, priority 2019, dated 2025)
